Entries after “also recorded” stand apart in the source; their conditions may differ.
Experiments:
[1] = system: Gram-positive bacteria (staphylococci, streptococci, enterococci); experiment: Activity on stool microflora of healthy volunteers (Example 7.1); format: in vivo, human
Experimental: (§1) The predetermined dose was reconstituted in 5 mL water per vial, mixed with 50 mL of sweetened, aromatized solution, and immediately administered orally to the subjects.
(§2) Faecal microbial concentrations (organisms per gram of faecal matter) were determined at the following timepoints: day-4 (pre-treatment), days 4 and 10 (treatment), and days […] and 24 (follow-up). Tolerability and absorption were also investigated.

[2] = system: yeast; experiment: as above; format: in vivo, human; conditions: 10 days BID
Experimental: as §1, §2

[3] = system: Gram-negative bacteria (enteric bacteria and Bacteroides spp.); experiment: as above; format: in vivo, human; conditions: 10 days BID
Experimental: as §1, §2

[4] = system: indigenous stool microflora; experiment: DGGE of PCR-amplified bacterial ribosomal RNA genes from stool (Example 3); format: in vivo, mice; conditions: oral ramoplanin 100 μg/mL in drinking water
[5] = system: VRE C68; experiment: Eradication of VRE stool colonization in mice (Example 2); format: in vivo
Experimental: Quantification of Stool Pathogens: Fresh stool specimens were processed as described by Donskey et al. (supra). In order to quantify VRE, K. pneumoniae, and C. glabrata, diluted samples were plated onto Enterococcosel agar containing vancomycin 20 μg/mL, MacConkey agar containing ceftazidime 10 μg/mL, or Sabouraud Dextrose Agar (Becton, Dickinson, and Company, Sparks, Md.) containing piperacillin/tazobactam 16 μg/mL and linezolid 8 μg/mL, respectively. The plates were incubated in room air at 37° C. far 24 or 48 hours, and the number of colony-forming units (CFU) of each pathogen per gram of sample was calculated.
High-density VRE stool colonization was established in mice by administering subcutaneous clindamycin (1.4 mg) once each day for 2 days before and 7 days after orogastric inoculation of 10^6 colony-forming units (CFU) of VRE C68 using a stainless steel feeding tube (Perfektum, Popper & Sons, New Hyde Park, N.Y.). […] Six mice were included in each treatment group.
To evaluate the possibility that ramoplanin-treated mice were being re-exposed to VRE from their environment, broth-enrichment cultures for VRE were performed as previously described Ray et al. (JAMA 287: 1400-1401, 2002) after contacting cage bottoms and tops, water bottles, and food with pre-moistened cotton-tipped swabs.

[6] = system: VRE (VRE faecium, VRE faecalis); experiment: In vitro activity (MIC90), internal Phase II isolates; format: cell-based, vancomycin-resistant Enterococcus; conditions: 235 strains, internal Phase II data
[7] = system: Enterococcus species; experiment: Effect on indigenous stool microflora (Example 3), quantitative culture; format: in vivo, mice
[8] = system: VRE; experiment: Effect of prior ramoplanin treatment on establishment of VRE colonization (Example 4); format: in vivo, mice; conditions: 10^7 CFU VRE 4 hours or 1, 2, 4 days after 7 days of 100 μg/ml; P>0.05 vs controls
Description: The density of VRE in stool was monitored before and 1 and 4 days after inoculation. Four mice were included in each treatment group.

[9] = Storage stability of ramoplanin granules for oral solution; format: physicochemical
Experimental: The contents of the packet can be reconstituted with approximately 15-30 mL of water, and the resulting solution either consumed directly, or further diluted with water, cranberry juice, apple juice, or 7-Up prior to drinking. After consumption, the drug may be followed with subsequent amounts of these beverages or with food (e.g., cracker, bread). […] Alternatively, ramoplanin is available as capsules containing pharmaceutically acceptable excipients that are generally regarded as safe.

[10] = In vitro interaction with human gastro-intestinal contents
Description: The in vitro interaction of ramoplanin with human gastro-intestinal contents was studied.

[11] = day 8 of 100 μg/ml drinking water, 8 mice

In the case of Ramoplanin, the “faecal concentrations of staphylococci, streptococci, and enterococci” value ([1]; by day 10, all subjects) is reported as “below the level of detection”, the “effect on faecal Gram-positive bacteria” value ([1]; first measurement on day 4) is reported as “marked effect” and the “effect on faecal yeast” value [2] is reported as “no effect”. For the same substance, the “effect on faecal Gram-negative bacteria” value [3] was “no effect”, the “stool DGGE patterns, mean similarity indices in comparison to the pre-treatment patterns” value [4] was 72% and the “mice that developed a recurrence of colonization after discontinuing treatment” value ([5]; 100 μg/ml in drinking water) was “One hundred”. The “mice that developed a detectable recurrence of colonization after discontinuing treatment” value ([5]; 500 μg/ml in drinking water) was 50%, the “levels of VRE in stool during treatment” value ([5]; 100 or 500 μg/ml in drinking water, 8 days, P<0.0001 vs controls) was “undetectable levels” and the “mice with VRE detectable in sections of the cecal lining” value [5, 11] was 25%. The “mice with negative stool and cecal content cultures for VRE” value [5, 11] was 100%, the “level of VRE in sections of the cecal lining” value ([5]; the 2 positive mice, day 8 of 100 μg/ml drinking water) was 2-3 log10 CFU/g and the “Ramoplanin MIC90” value [6] was 0.5 µg/mL. For the same substance, the “Enterococcus species in stool” value ([7]; at least 11 days after discontinuation (day 18)) was “remained significantly reduced”, the “Enterococcus species in stool” value ([7]; ramoplanin treatment, P<0.001) was “significantly reduced” and the “overgrowth / establishment of VRE stool colonization after prior ramoplanin treatment” value [8] was “did not facilitate the establishment of stool colonization; also recorded: did not develop significant overgrowth of VRE”. The “stability of 400 mg granulated powder packets” value ([9]; refrigerated conditions) was “stable for at least one year”, the “shelf life of reconstituted aqueous solution” value ([9]; stored at refrigerated conditions) was 48 h and the “binding to solid components of faeces” value [10] was “bind reversibly”. The “microbiological activity in faeces” value [10] was “microbiologically active in faeces”.

— patent US20100113334A1, “METHODS FOR REDUCING OR PREVENTING TRANSMISSION OF NOSOCOMIAL PATHOGENS IN A HEALTH CARE FACILITY” (priority 2003, published 2010)
